pIC50: −log10 of the molar value.

One test relates to HT29. The test is described as follows: MTT cell viability assay, HT29. It is filed as cell-based, human. How it is done:
(§1) FIG. 1 Illustrates results generated when HT29, A375SM, MEL624, SK-MEL-2, H1299, HCT116, Raji, HL60 and MDA-MB231 cells were treated with log-scale serial diluted concentrations of truncated superstolide A (Compound 3) from 1 to 3000 nM for 72 hours and the effect of truncated superstolide A on cell death was measured by performing a MTT assay.
(§2) Cell Viability Assay: The antiproliferative effect of compound 3 was determined by performing 3-(4,5-dimethylthiazol-2-yl)-2,5-diphenyltetrazolim (MTT) assay. Briefly, cancer cells at varying concentrations—2,000 cells/well (A375SM, MEL624 and SK-MEL-2,) and 5,000 cells/well (HT29, H1299, and HCT116, Raji, and HL-60)—were seeded onto a 96-well plate in triplicates. […] At the end of the 72 hours period, cells were treated with the MTT reagent (Sigma-Aldrich, M O) and the antiproliferative effect of compound 3 was measured as previously described (Zhou Y, Achanta G, Pelicano H, Gandhi V, Plunkett W, and Huang P (2002). Molecular Pharmacology 61:222-229). […]
(§3) The antiproliferative effect of compound 3 was evaluated in two human colon carcinoma cell lines (HT29, HCT116), three malignant melanoma cell lines (A375SM, MEL624, and SK-MEL-2), one human non-small cell lung carcinoma cell line (H1299), one lymphoma cell line (Raji), one leukemia cell line (HL-60), and one malignant breast cancer cell line (MDA-MB231) using MTT assay. […]
(Formazan colour is commonly taken as a measure of viable cells.)

A further test deals with A375SM. Briefly: MTT cell viability assay, A375SM. It is filed as cell-based. To be noted: Homo sapiens, A375-SM, 72 hours, read-out: IC50 (nM), antiproliferative effect. As to the method: as §1, §2, §3
The next test concerns MEL624. Briefly: MTT cell viability assay, MEL624. It is filed as cell-based. The following applies: 72 hours, read-out: IC50 (nM), antiproliferative effect. As to the method:
as §1, §2, §3

The next test concerns SK-MEL-2. Briefly: MTT cell viability assay, SK-MEL-2. Format: cell-based. To be noted: Homo sapiens, 72 hours, read-out: IC50 (nM), antiproliferative effect. As to the method: as §1, §2, §3
In another test the test system is H1299. The test is described as follows: MTT cell viability assay, H1299. Format: cell-based. The following applies: Homo sapiens, NCI-H1299, 72 hours, read-out: IC50 (nM), antiproliferative effect. How it is done:
as §1, §2, §3

In the next test the test system is HCT116. The test is described as follows: MTT cell viability assay, HCT116. It is filed as cell-based. To be noted: Homo sapiens, HCT-116, 72 hours, read-out: IC50 (nM), antiproliferative effect. How it is done: as §1, §2, §3
The subject of a further test is Raji. The test is described as follows: MTT cell viability assay, Raji. It is filed as cell-based. The following applies: Homo sapiens, 72 hours, read-out: IC50 (nM), antiproliferative effect. As to the method: as §1, §2, §3
In the next test the test system is HL60. The test is described as follows: MTT cell viability assay, HL60. It is filed as cell-based. To be noted: Homo sapiens, HL-60, 72 hours, read-out: IC50 (nM), antiproliferative effect. How it is done: as §1, §2, §3
In a further test the test system is MDA-MB231. The test is described as follows: MTT cell viability assay, MDA-MB231. It is filed as cell-based. The following applies: Homo sapiens, MDA-MB-231, 72 hours, read-out: IC50 (nM), antiproliferative effect. How it is done:
as §1, §2, §3

The subject of test [1] is the other eight tested cell lines. The test is described as follows: MTT cell viability assay, other eight tested cell lines (summary). The following applies: Homo sapiens; the other eight tested cell lines (all but HT-29); read-out: IC50 in suppressing tumor cell proliferation. Format: cell-based. As to the method: Cell Viability Assay: The antiproliferative effect of compound 3 was determined by performing 3-(4,5-dimethylthiazol-2-yl)-2,5-diphenyltetrazolim (MTT) assay. Briefly, cancer cells at varying concentrations—2,000 cells/well (A375SM, MEL624 and SK-MEL-2,) and 5,000 cells/well (HT29, H1299, and HCT116, Raji, and HL-60)—were seeded onto a 96-well plate in triplicates. Following an overnight incubation, the cells were treated with log-scale serially increasing concentrations of compound 3 for 72 hours at 37° C. At the end of the 72 hours period, cells were treated with the MTT reagent (Sigma-Aldrich, M O) and the antiproliferative effect of compound 3 was measured as previously described (Zhou Y, Achanta G, Pelicano H, Gandhi V, Plunkett W, and Huang P (2002). Molecular Pharmacology 61:222-229). The IC50 values correspond to a concentration of compound 3 that inhibits cell viability by 50%.
The antiproliferative effect of compound 3 was evaluated in two human colon carcinoma cell lines (HT29, HCT116), three malignant melanoma cell lines (A375SM, MEL624, and SK-MEL-2), one human non-small cell lung carcinoma cell line (H1299), one lymphoma cell line (Raji), one leukemia cell line (HL-60), and one malignant breast cancer cell line (MDA-MB231) using MTT assay. The data (MTT curves and IC50 tables) are shown in FIG. 1 and in the following Table 1.

In another test the test system is NCI-60 cell assay. The test is described as follows: NCI-60 cell assay. Format: cell-based. To be noted: leukemia, non-small cell lung cancer, colon cancer, CNS cancer, melanoma, ovarian cancer, renal cancer, prostate cancer, breast cancer.
The subject of the next test is HT-29 cell. The following applies: read-out: IC50, antiproliferative effect; cited from earlier work.

Consider `CC(=O)N[C@H](C)[C@@H](O)[C@@H](C)[C@@H]1OC(=O)/C=C/C=C(C)\C=C\[C@]2(C)CCC=C[C@@H]2/C=C(C)/C=C/[C@H]1C` [Compound 3], for which the “potency in suppressing tumor cell proliferation relative to superstolide A” value with HT29 (HT-29 cell, versus parent natural product superstolide A) was “about seven times more potent”. For the same compound, the IC50 (in general, the concentration at which inhibition is half-maximal) came out at 7.54 nM in the test on HT29 (Homo sapiens, HT-29, HT29, 72 hours, MTT assay, read-out: IC50 (nM), antiproliferative effect); 36.5 nM in the test on A375SM; 53.1 nM with MEL624; 63.8 nM with SK-MEL-2; 56.8 nM in the test on H1299; 52.7 nM in the test on HCT116. Also, the IC50 in the test with Raji came to 76.7 nM; in the test with HL60, 11.8 nM; in the test on MDA-MB231, 18 nM. In test [1], the pIC50 was 7.15 to 8.00. In addition, in the test with NCI-60 cell assay, the “activity in NCI-60 cell assay” value was “active”.

For superstolide A, the pIC50 with HT-29 cell is 7.19.

The values are drawn from patent US9346781B2, “Therapeutic compounds” (UNIVERSITY OF IOWA RESEARCH FOUNDATION, priority 2012, dated 2016).
